Measured values from patent US20070009895A1, “Method of interaction analysis and interaction analyzer” (priority 2003, published 2007).

Biological target: human FKBP12 (Homo sapiens, UniProt P62942)
Settings: Measurement 3; first solutions of two or three samples, one of them 100 μM FKBP12, others HSA
Text: An apparatus for analyzing interactions in this example includes a column TSK super SW2000 for size exclusion chromatography (column size: 1.0 ID×10 mm, 1.0 ID×30 mm or 1.0 ID×100 mm, manufactured by Tosoh Corporation) for a separation channel 1. The apparatus for analyzing interactions also includes an auto injector HTC-PAL (manufactured by CTC Analytics AG) for a container section 3, and a LC pump (Agilent 1100, manufactured by Yokogawa) for an introduction device 4. The apparatus for analyzing interactions also includes an ion trap mass spectrometer LCQ deca XP (ThermoQuest) for a detection device 5.
The auto injector HTC-PAL (CTC Analytics AG) includes a sample loop of 5 μL or 10 μL, a syringe of 10 μL, and sample trays with a cooling unit. A first solution was introduced by 50 μL into a 2 mL screw vial with a conical insert of 100 μL inserted therein. A screw cap with a septum was put on the vial and the vial was placed in a 54 vial rack and the rack was set in one of the sample trays. A second solution was introduced by 40 μL into each well of a 384 well-microplate, and the microplate was covered with an aluminum seal and set in another sample tray. The sample trays were set at the temperature of 10 degrees C. […]

human FKBP12, sequence (P62942 whole entry): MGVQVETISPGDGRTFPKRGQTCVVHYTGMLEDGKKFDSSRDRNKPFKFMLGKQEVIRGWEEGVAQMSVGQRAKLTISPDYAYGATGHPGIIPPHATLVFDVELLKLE

CC[C@@H]1/C=C(\C)C[C@H](C)C[C@H](OC)[C@H]2O[C@@](O)(C(=O)C(=O)N3CCCC[C@H]3C(=O)O[C@H](/C(C)=C/[C@@H]3CC[C@@H](O)[C@H](OC)C3)[C@H](C)[C@@H](O)CC1=O)[C@H](C)C[C@@H]2OC [Ascomycin]
interaction with FKBP12 (peaks in mass chromatogram of the compound): interaction between Ascomycin and FKBP12 is able to be detected
